# Values quoted from earlier work in US6689394B2, “Removal of ectoparasites” (Schering-Plough HealthCare Products, Inc., priority 2001, dated 2004).
# Test system: head lice
# Settings: comparison of published results for topical pesticidal treatments
smiles,measurement,value
CC1(C)C(C=C(Cl)Cl)C1C(=O)OCc1cccc(Oc2ccccc2)c1 (stereo not shown) [Permethrin],evidence of clinical efficacy,sufficient evidence of efficacy
